These results are taken from ChEMBL document CHEMBL5154721, “Discovery of HDAC6-Selective Inhibitor NN-390 with in Vitro Efficacy in Group 3 Medulloblastoma” (J Med Chem, 2022).

The subject of one series is MM1.S. In words: Cytotoxicity against human MM1.S cells assessed as inhibition of cell growth incubated for 72 hrs measured by spectrophotometer analysis. It counts as functional, cell-based.
The nature of series [1]: Half life in CD-1 mouse at 20 mg/kg, ip. It counts as ADME, organism-based. The conditions noted are these: in vivo.
Series [2] in a line: Cmax in CD-1 mouse at 20 mg/kg, ip. It counts as ADME, organism-based. Details: dose 20 mg/kg, route ip. The conditions noted are these: in vivo.
Series [3] can be described thus: AUClast in CD-1 mouse at 20 mg/kg, ip. It counts as ADME, organism-based. Details: time 0 - last, dose 20 mg/kg, route ip. The conditions noted are these: in vivo.
Series [4] can be described thus: AUCinfinity in CD-1 mouse at 20 mg/kg, ip. In kind it is ADME, organism-based. Details: time infinity, dose 20 mg/kg, route ip. The conditions noted are these: in vivo.
Series [5] in a line: AUC/D in CD-1 mouse at 20 mg/kg, ip. In kind it is ADME, organism-based. The settings on record: in vivo.
The next series is described as follows: in vitro. The conditions noted are these: human, MRC9 cells.

Take `CCCCN(Cc1ccc(C(=O)NO)cc1)C(=O)Nc1ccccc1` [NEXTURASTAT A]: in the series with MM1.S, the IC50 (in general, the concentration at which inhibition is half-maximal) was determined as 1760 nM. Moreover, the half-life (commonly how long it takes for the measured level to halve) in series [1] is 1.9 h. The highest concentration (Cmax) (as a rule, the peak of the concentration-time curve) in series [2] came out at 750 ng/mL. Also, the AUC(0-t) (as a rule, the area under the concentration-time curve up to a stated or last time point) in series [3] was 2520 ng·h/mL. Further, the AUC(0-inf) (as a rule, total exposure, with the tail of the curve extrapolated) in series [4] came out at 2550 ng·h/mL. Moreover, in series [5], the AUC/dose came out at 126 ng·h/mL. In addition, the IC50 at 72 h in the series “in vitro” was > 20000 nM.
